{"source": "paper PMC10046961", "about": "“High-Throughput Screening Assay for Detecting Drug-Induced Changes in Synchronized Neuronal Oscillations and Potential Seizure Risk Based on Ca^2+ Fluorescence Measurements in Human Induced Pluripotent Stem Cell (hiPSC)-Derived Neuronal 2D and 3D Cultures” (Cells, 2023)", "key": {"[1]": {"system": "hiPSC-derived neurons co-cultured with human primary astrocytes in 3D", "experiment": "Ca2+ transient oscillation assay (FDSS), 3D spheroids", "assay_type": "cell-based", "settings": "60 min", "method_in_brief": "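Fura-2 fluorescence was read twice for 20 min each: a baseline 10 min after 0.04% DMSO, and again 60 min after compound addition at nominal final concentration. The 3D co-cultures (1:1 hiPSC neurons from a donor and human astrocytes, 8000 each) matured 5 weeks in BrainPhys medium after a 1-week differentiation.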"}, "[2]": {"system": "hiPSC-derived neurons co-cultured with human primary astrocytes in 2D", "experiment": "Ca2+ transient oscillation assay (FDSS), 2D co-culture", "assay_type": "cell-based", "settings": "Homo sapiens, 1 h, 60 min", "method_in_brief": "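hiPSC-derived excitatory neurons (CW50065, Quick-Neuron EX-SeV) co-cultured with human primary astrocytes at 4:1 (10,000:2500 cells per well). Cal-520-loaded cells in HBSS with 2 mM CaCl2 and 10 mM HEPES were pretreated with 0.04% DMSO.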"}, "[3]": {"system": "kainic-acid-induced seizures", "settings": "cited from earlier work"}, "[4]": {"settings": "read-out: Area under the curve - 2D Mean"}, "[5]": {"settings": "read-out: Peak amplitude - 2D Mean"}, "[6]": {"settings": "read-out: Peak-to-peak interval - 2D Mean"}}, "note": "Like-named read-outs stand apart in the source and are kept apart here.", "data": [{"molecule": "CC(NC(C)(C)C)C(=O)c1cccc(Cl)c1", "note": "(centres unmarked) [Bupropion]", "values": [{"measurement": "Area under the curve - 3D Mean", "setting": "[1]; 0.37 µM", "value": 137.5, "unit": "% change from baseline"}, {"measurement": "Peak Number—3D Mean", "setting": "[1]; 0.37 µM", "value": 1.3, "unit": "% change from baseline"}, {"measurement": "Peak amplitude - 3D Mean", "setting": "[1]; 0.37 µM", "value": 126.7, "unit": "% change from baseline"}, {"measurement": "Peak width - 3D Mean", "setting": "[1]; 0.37 µM", "value": 0.0, "unit": "% change from baseline"}, {"measurement": "Peak-to-peak interval - 3D Mean", "setting": "[1]; 0.37 µM", "value": 4.1, "unit": "% change from baseline"}, {"measurement": "Area under the curve - 3D Mean", "setting": "[1]; 1.11 µM", "value": 159.9, "unit": "% change from baseline"}, {"measurement": "Peak Number—3D Mean", "setting": "[1]; 1.11 µM", "value": "−8.4", "unit": "% change from baseline"}, {"measurement": "Peak amplitude - 3D Mean", "setting": "[1]; 1.11 µM", "value": 134.2, "unit": "% change from baseline"}, {"measurement": "Peak width - 3D Mean", "setting": "[1]; 1.11 µM", "value": 9.4, "unit": "% change from baseline"}, {"measurement": "Peak-to-peak interval - 3D Mean", "setting": "[1]; 1.11 µM", "value": 15.3, "unit": "% change from baseline"}, {"measurement": "Area under the curve - 3D Mean", "setting": "[1]; 3.33 µM", "value": 154.1, "unit": "% change from baseline"}, {"measurement": "Peak Number—3D Mean", "setting": "[1]; 3.33 µM", "value": "−2.2", "unit": "% change from baseline"}, {"measurement": "Peak amplitude - 3D Mean", "setting": "[1]; 3.33 µM", "value": 128.1, "unit": "% change from baseline"}, {"measurement": "Peak width - 3D Mean", "setting": "[1]; 3.33 µM", "value": 9.0, "unit": "% change from baseline"}, {"measurement": "Peak-to-peak interval - 3D Mean", "setting": "[1]; 3.33 µM", "value": 7.8, "unit": "% change from baseline"}, {"measurement": "Area under the curve - 3D Mean", "setting": "[1]; 10 µM", "value": 119.7, "unit": "% change from baseline"}, {"measurement": "Peak Number—3D Mean", "setting": "[1]; 10 µM", "value": 12.5, "unit": "% change from baseline"}, {"measurement": "Peak amplitude - 3D Mean", "setting": "[1]; 10 µM", "value": 118.0, "unit": "% change from baseline"}, {"measurement": "Peak width - 3D Mean", "setting": "[1]; 10 µM", "value": "−1.4", "unit": "% change from baseline"}, {"measurement": "Peak-to-peak interval - 3D Mean", "setting": "[1]; 10 µM", "value": "−3.5", "unit": "% change from baseline"}, {"measurement": "activation at 0.37 µM", "setting": "[2]; [4]", "value": 14.5, "unit": "%"}, {"measurement": "activation at 0.37 µM", "setting": "[2]; read-out: Peak Number—2D Mean", "value": 12.7, "unit": "%"}, {"measurement": "activation at 0.37 µM", "setting": "[2]; [5]", "value": 2.7, "unit": "%"}, {"measurement": "activation at 0.37 µM", "setting": "[2]; read-out: Peak width - 2D Mean", "value": 12.8, "unit": "%"}, {"measurement": "activation at 0.37 µM", "setting": "[2]; [6]", "value": -5.5, "unit": "%"}, {"measurement": "activation at 1.11 µM", "setting": "[2]; [4]", "value": 26.6, "unit": "%"}, {"measurement": "activation at 1.11 µM", "setting": "[2]; read-out: Peak Number—2D Mean", "value": 6.6, "unit": "%"}, {"measurement": "activation at 1.11 µM", "setting": "[2]; [5]", "value": 5.4, "unit": "%"}, {"measurement": "activation at 1.11 µM", "setting": "[2]; read-out: Peak width - 2D Mean", "value": 26.6, "unit": "%"}, {"measurement": "activation at 1.11 µM", "setting": "[2]; [6]", "value": 3.4, "unit": "%"}, {"measurement": "activation at 3.33 µM", "setting": "[2]; [4]", "value": 25.5, "unit": "%"}, {"measurement": "activation at 3.33 µM", "setting": "[2]; read-out: Peak Number—2D Mean", "value": -12, "unit": "%"}, {"measurement": "activation at 3.33 µM", "setting": "[2]; [5]", "value": 3.7, "unit": "%"}, {"measurement": "activation at 3.33 µM", "setting": "[2]; read-out: Peak width - 2D Mean", "value": 29.2, "unit": "%"}, {"measurement": "activation at 3.33 µM", "setting": "[2]; [6]", "value": 19.7, "unit": "%"}, {"measurement": "activation at 10 µM", "setting": "[2]; [4]", "value": 39.3, "unit": "%"}, {"measurement": "activation at 10 µM", "setting": "[2]; read-out: Peak Number—2D Mean", "value": 6, "unit": "%"}, {"measurement": "activation at 10 µM", "setting": "[2]; [5]", "value": 4.7, "unit": "%"}, {"measurement": "activation at 10 µM", "setting": "[2]; read-out: Peak width - 2D Mean", "value": 46.5, "unit": "%"}, {"measurement": "activation at 10 µM", "setting": "[2]; [6]", "value": 41.8, "unit": "%"}, {"measurement": "effect on kainic-acid-induced seizures in vitro", "setting": "[3]", "value": "attenuate"}]}]}
